# “And” between values parts separate entries of the source, which are not always exact repeats. Equal entries are not always repeated. Where two headings read alike, the source gives them in different places.
# Key:
# [1] = system: C57BL/6 Diet Induced Obese (DIO) mice; experiment: Oral (P.O.) administration study in DIO mice: in vivo activity, body weights; set-up: species or system mouse; settings: for Body weight, Mean / change in vivo at 2 mg/kg: male; for change in vivo at 2 mg/kg: Mus musculus, po, read-out: Body weight, %-Diff; for Individual Body Weight: individual male animals
# Description: The purpose of this study was to assess test articles in the Diet Induced Obese (DIO) mouse.
# Male C57BL/6 Diet Induced Obese (DIO) mice were received from Taconic. Animals were acclimated to housing conditions for at least 1 week prior to vehicle acclimation dosing. Animals were acclimated to oral gavage dosing with vehicle once daily for Days 11 through 14 of the predose phase.
# At initiation of dosing, animals were 21 to 22 weeks old, and their body weights ranged from 29.8 to 40.1 g.
# Dose formulations were administered by oral gavage once daily for 10 days at a dose volume of 2 mL/kg. Doses were based on the most recently recorded scheduled body weight.
# Body weights were recorded daily on Days 11 through 14 of the predose phase. Body weights were collected for all animals daily during the dosing phase prior to dosing.
# Descriptive statistics (n, mean, standard error of the mean, standard deviation) were completed. Additionally, one-way analysis of variance followed by Dunnett's post-hoc test were performed on body weight (cumulative body weight change), glucose (glucose percent change), and food consumption (cumulative food consumption). Area under the curve (for body weight, cumulative body weight change, daily body weight change, and food consumption) was computed for treatment groups. An appropriate comparison test, such as one-way analysis of variance and Dunnett's, was performed on the group means for the area under the curve computations. Any additional statistical analysis and interpretation of the results were the responsibility of the sponsor.
# [2] = system: C57BL/6 Diet Induced Obese (DIO) mice; experiment: Oral (P.O.) administration study in DIO mice: animal fate (mortality) and clinical observations; settings: mouse, in vivo, 2 mg/kg
# Protocol: Male C57BL/6 DIO mice were assigned to 12 groups, and doses of 2 mg/kg Celastrol (ERX1000-4), ERX1006, ERX1007, ERX1037, ERX1060, ERX1077, ERX1107, ERX1149, ERX1168, ERX1177, and Pristimerin were administered to Groups 2 through 12, respectively. Animals were dosed via oral gavage once daily for 10 days at a volume of 2 mL/kg. The vehicle control article was 1% methyl cellulose (400 cps) in citric acid and phosphate buffer.
# Parameters assessed included mortality, clinical observations, body weights and food consumption and blood glucose evaluations.
# All animals were anesthetized via carbon dioxide, sacrificed, and discarded without further evaluation on Day 11.
# [3] = Compound solubility in PBS (pH 7.4), LC-MS/MS; settings: PBS (pH 7.4), pH 7.4, aqueous buffer, kinetic from dmso stock
# Protocol: • Test concentration: 100 μM (1% of DMSO) • Test systems: PBS (pH 7.4) • Incubation condition: shaken (1000 rpm) for 1 h at room temperature • Sample size: Duplicates (n=2) • Bioanalytical method: LC-MS/MS
# [4] = DIO mice, 2 mg/kg, phase DSNG, Day 7
# [5] = DIO mice, 2 mg/kg, phase DSNG, Day 8
# [6] = DIO mice, 2 mg/kg, phase DSNG, Day 9
# [7] = DIO mice, 2 mg/kg, phase DSNG, Day 10
# [8] = DIO mice, 2 mg/kg, phase DSNG, Day 11
# [9] = Day 1, DSNG phase, 2 mg/kg, N=5
# [10] = Day 2, DSNG phase, 2 mg/kg, N=5
# [11] = Day 3, DSNG phase, 2 mg/kg, N=5
# [12] = Day 4, DSNG phase, 2 mg/kg, N=5
# [13] = Day 5, DSNG phase, 2 mg/kg, N=5
# [14] = Day 6, DSNG phase, 2 mg/kg, N=5
# [15] = 24 h, Day 1, DSNG phase, 2 mg/kg, difference of group mean
# [16] = 48 h, Day 2, DSNG phase, 2 mg/kg, difference of group mean
# [17] = 72 h, Day 3, DSNG phase, 2 mg/kg, difference of group mean
# [18] = 96 h, Day 4, DSNG phase, 2 mg/kg, difference of group mean
# [19] = 120 h, Day 5, DSNG phase, 2 mg/kg, difference of group mean
# [20] = 144 h, Day 6, DSNG phase, 2 mg/kg, difference of group mean
# [21] = 168 h, DIO mice, 2 mg/kg, phase DSNG, Day 7, difference of group mean from vehicle group 1
# [22] = 192 h, DIO mice, 2 mg/kg, phase DSNG, Day 8, difference of group mean from vehicle group 1
# [23] = 216 h, DIO mice, 2 mg/kg, phase DSNG, Day 9, difference of group mean from vehicle group 1
# [24] = 240 h, DIO mice, 2 mg/kg, phase DSNG, Day 10, difference of group mean from vehicle group 1
# [25] = 264 h, DIO mice, 2 mg/kg, phase DSNG, Day 11, difference of group mean from vehicle group 1
# [26] = Solubility (μM) Mean, Table 6-B, test concentration 100 μM (1% of DMSO), shaken (1000 rpm) 1 h at room temperature, n = 2
# [27] = 2 mg/kg, Phase Day PRED 11 (pre-dose baseline)
# [28] = 2 mg/kg, Phase Day PRED 12 (pre-dose baseline)
# [29] = 2 mg/kg, Phase Day PRED 13 (pre-dose baseline)
# [30] = 2 mg/kg, Phase Day PRED 14 (pre-dose baseline)
SMILES,"Body weight, Mean [1, 4]","Body weight, Mean [1, 5]","Body weight, Mean [1, 6]","Body weight, Mean [1, 7]","Body weight, Mean [1, 8]","Body weight, Mean [1, 9]","Body weight, Mean [1, 10]","Body weight, Mean [1, 11]","Body weight, Mean [1, 12]","Body weight, Mean [1, 13]","Body weight, Mean [1, 14]","change in vivo at 2 mg/kg [1, 15]","change in vivo at 2 mg/kg [1, 16]","change in vivo at 2 mg/kg [1, 17]","change in vivo at 2 mg/kg [1, 18]","change in vivo at 2 mg/kg [1, 19]","change in vivo at 2 mg/kg [1, 20]","change in vivo at 2 mg/kg [1, 21]","change in vivo at 2 mg/kg [1, 22]","change in vivo at 2 mg/kg [1, 23]",other results
CC1=C(O)C(=O)C=C2C1=CC=C1[C@@]2(C)CC[C@@]2(C)[C@@H]3C[C@](C)(CN(C)C)CC[C@]3(C)CC[C@]12C [ERX1060],33.8 g,33.3 g,33.1 g,33.5 g,34.4 g,34.6 g,34.1 g,34.4 g,34.1 g,34.2 g,34.4 g,1%,-1%,1%,2%,1%,3%,1%,-1%,0%,"change in vivo at 2 mg/kg [1, 24]: 0%; change in vivo at 2 mg/kg [1, 25]: 1%; Individual Body Weight, PRED 11 ([1]; individual male DIO mouse of the 2 mg/kg group, pre-dose phase day 11 (baseline)): 36.2 g and 38.2 g and 35.9 g and 40.9 g and 38.9 g; Individual Body Weight, PRED 12 ([1]; individual male DIO mouse of the 2 mg/kg group, pre-dose phase day 12 (baseline)): 34.5 g and 36.6 g and 34.9 g and 41.2 g and 39.0 g; Individual Body Weight, PRED 13 ([1]; individual male DIO mouse of the 2 mg/kg group, pre-dose phase day 13 (baseline)): 33.2 g and 34.7 g and 33.5 g and 39.8 g and 37.1 g; Individual Body Weight, PRED 14 ([1]; individual male DIO mouse of the 2 mg/kg group, pre-dose phase day 14 (baseline)): 33.7 g and 35.1 g and 32.7 g and 40.6 g and 37.4 g; Individual Body Weight, DSNG 1 ([1]; individual male DIO mouse, 2 mg/kg, dosing phase day 1, 2 mg/kg): 32.9 g and 34.3 g and 31.3 g and 38.7 g and 35.6 g; Individual Body Weight, DSNG 2 ([1]; individual male DIO mouse, 2 mg/kg, dosing phase day 2, 2 mg/kg): 33.2 g and 34.1 g and 29.8 g and 38.2 g and 35.2 g; Individual Animal Fate: Fate Status [2]: Scheduled Sacrifice; solubility at 1 h [3, 26]: 1.11 µM; solubility at 1 h ([3]; Solubility (μM), Table 6-D): 1.11 µM"
CC1=C(O)C(=O)C=C2C1=CC=C1[C@@]2(C)CC[C@@]2(C)[C@@H]3C[C@](C)(N)CC[C@]3(C)CC[C@]12C [ERX1077],33.3 g,33.7 g,33.5 g,33.8 g,33.9 g,34.4 g,34.1 g,34.0 g,33.7 g,33.7 g,34.0 g,0%,-1%,0%,1%,0%,1%,-1%,0%,1%,"Individual Body Weight ([1]; 2 mg/kg, Phase Day DSNG 1): 31.5 g and 32.8 g and 34.5 g and 38.3 g and 34.9 g; Individual Body Weight ([1]; 2 mg/kg, Phase Day DSNG 2): 31.2 g and 32.5 g and 34.1 g and 38.4 g and 34.4 g; Individual Body Weight [1, 27]: 32.6 g and 34.8 g and 36.1 g and 40.2 g and 38.0 g; Individual Body Weight [1, 28]: 33.2 g and 34.0 g and 35.8 g and 40.4 g and 37.0 g; Individual Body Weight [1, 29]: 31.6 g and 33.1 g and 35.6 g and 39.7 g and 36.9 g; Individual Body Weight [1, 30]: 32.7 g and 33.6 g and 35.7 g and 40.6 g and 36.6 g; change in vivo at 2 mg/kg [1, 24]: 1%; change in vivo at 2 mg/kg [1, 25]: -1%; Individual Animal Fate: Fate Status [2]: Scheduled Sacrifice; solubility at 1 h [3, 26]: 16.7 µM; solubility at 1 h ([3]; Solubility (μM), Table 6-D): 16.7 µM"
CCOC1=C(C)C2=CC=C3[C@@](C)(CC[C@@]4(C)[C@@H]5C[C@](C)(C(N)=O)CC[C@]5(C)CC[C@]34C)C2=CC1=O [ERX1107],32.4 g,32.3 g,32.2 g,32.4 g,32.7 g,34.2 g,34.3 g,33.4 g,33.2 g,33.1 g,32.7 g,0%,-1%,-1%,-1%,-2%,-2%,-3%,-4%,-3%,"Individual Body Weight ([1]; 2 mg/kg, Phase Day DSNG 1): 33.6 g and 35.8 g and 36.3 g and 31.2 g and 34.1 g; Individual Body Weight ([1]; 2 mg/kg, Phase Day DSNG 2): 33.5 g and 36.5 g (2×) and 31.0 g and 33.9 g; Individual Body Weight [1, 27]: 34.1 g (2×) and 36.6 g and 37.7 g and 36.2 g; Individual Body Weight [1, 28]: 35.1 g and 37.5 g and 37.9 g and 33.2 g and 34.6 g; Individual Body Weight [1, 29]: 34.9 g and 38.0 g and 37.6 g and 31.9 g and 33.8 g; Individual Body Weight [1, 30]: 35.1 g and 37.5 g and 37.7 g and 32.5 g and 34.6 g; change in vivo at 2 mg/kg [1, 24]: -3%; change in vivo at 2 mg/kg [1, 25]: -4%; Individual Animal Fate: Fate Status [2]: Scheduled Sacrifice; solubility at 1 h [3, 26]: 11.4 µM; solubility at 1 h ([3]; Solubility (μM), Table 6-D): 11.4 µM"

# Reference: patent publication US10662218B2, “Analogs of celastrol” (ERX Pharmaceuticals, Inc., priority 2015, dated 2020)
